Biological target: T1, CK1α (Homo sapiens, UniProt P48729+Q96SW2)
T1 construct: expressed in transfected cells
Test: CK1α ePL degradation assay in MDS-L cells
Format: cell-based
Settings: MDS-L cells expressing ePL-tagged CK1α; for DC50: concentration giving 50% CK1α degradation vs DMSO control; for Y: lowest measured CK1α level normalized to DMSO control
Procedure, shortened: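 MDS-L cells treated with compound in a 10-point, 3-fold series from 10 μM to 0.0005 μM at 37° C, 5% CO2 for the indicated times; CK1α measured by InCELL Hunter enzyme-fragment luminescence. Levels normalized to DMSO as percent of control; lowest level reached taken as Y value.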

T1 sequence (P48729 whole entry): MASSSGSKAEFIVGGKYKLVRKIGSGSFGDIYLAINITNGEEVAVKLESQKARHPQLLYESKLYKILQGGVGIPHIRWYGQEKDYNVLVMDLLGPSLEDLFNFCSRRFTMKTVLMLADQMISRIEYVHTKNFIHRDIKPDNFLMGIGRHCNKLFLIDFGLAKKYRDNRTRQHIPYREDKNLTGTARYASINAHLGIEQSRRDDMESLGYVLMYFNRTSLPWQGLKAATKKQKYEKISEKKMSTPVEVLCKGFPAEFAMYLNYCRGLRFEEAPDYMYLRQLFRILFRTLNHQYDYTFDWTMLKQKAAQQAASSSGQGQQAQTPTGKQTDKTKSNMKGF
T1 sequence (Q96SW2 whole entry): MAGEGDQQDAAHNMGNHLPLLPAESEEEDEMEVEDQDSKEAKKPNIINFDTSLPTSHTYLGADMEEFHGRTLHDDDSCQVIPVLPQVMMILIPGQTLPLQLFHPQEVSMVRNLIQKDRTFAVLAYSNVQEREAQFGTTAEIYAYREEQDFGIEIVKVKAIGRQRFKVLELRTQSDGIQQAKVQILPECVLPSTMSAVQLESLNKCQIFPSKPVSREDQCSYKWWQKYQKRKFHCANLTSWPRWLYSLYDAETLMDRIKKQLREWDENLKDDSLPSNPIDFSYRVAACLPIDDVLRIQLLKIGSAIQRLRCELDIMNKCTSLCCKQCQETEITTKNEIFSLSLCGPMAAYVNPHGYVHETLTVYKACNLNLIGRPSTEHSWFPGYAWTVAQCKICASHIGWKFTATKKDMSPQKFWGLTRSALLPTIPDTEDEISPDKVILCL
T1 sequence (Q16531 whole entry partner): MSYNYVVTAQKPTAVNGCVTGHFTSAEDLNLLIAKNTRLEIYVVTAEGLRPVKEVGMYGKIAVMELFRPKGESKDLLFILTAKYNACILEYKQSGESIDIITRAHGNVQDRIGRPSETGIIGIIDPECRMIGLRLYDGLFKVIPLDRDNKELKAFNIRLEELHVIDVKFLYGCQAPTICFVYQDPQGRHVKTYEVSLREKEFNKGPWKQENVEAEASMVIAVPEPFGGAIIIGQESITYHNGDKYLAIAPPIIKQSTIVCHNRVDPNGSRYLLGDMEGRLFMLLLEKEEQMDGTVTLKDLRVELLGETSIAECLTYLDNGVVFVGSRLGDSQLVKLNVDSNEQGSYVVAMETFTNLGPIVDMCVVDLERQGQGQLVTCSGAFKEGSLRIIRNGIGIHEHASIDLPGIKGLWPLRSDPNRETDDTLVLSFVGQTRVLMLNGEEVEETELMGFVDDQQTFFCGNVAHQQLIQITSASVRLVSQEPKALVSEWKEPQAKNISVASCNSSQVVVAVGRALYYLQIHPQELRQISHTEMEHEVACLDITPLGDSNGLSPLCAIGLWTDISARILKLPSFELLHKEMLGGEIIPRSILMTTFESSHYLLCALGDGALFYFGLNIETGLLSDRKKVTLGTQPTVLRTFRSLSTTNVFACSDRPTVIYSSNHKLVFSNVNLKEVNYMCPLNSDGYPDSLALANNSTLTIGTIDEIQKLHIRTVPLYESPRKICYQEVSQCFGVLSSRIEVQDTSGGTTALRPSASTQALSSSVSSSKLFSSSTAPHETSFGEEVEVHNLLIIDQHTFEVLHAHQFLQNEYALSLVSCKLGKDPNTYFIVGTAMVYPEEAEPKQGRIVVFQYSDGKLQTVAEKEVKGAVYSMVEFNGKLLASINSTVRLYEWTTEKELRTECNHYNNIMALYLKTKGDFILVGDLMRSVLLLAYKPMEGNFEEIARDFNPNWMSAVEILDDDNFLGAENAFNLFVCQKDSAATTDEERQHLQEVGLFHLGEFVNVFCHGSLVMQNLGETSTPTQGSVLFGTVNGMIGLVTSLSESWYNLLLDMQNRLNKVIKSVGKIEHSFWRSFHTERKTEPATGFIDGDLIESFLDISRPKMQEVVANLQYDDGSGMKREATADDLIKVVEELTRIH

Row | SMILES | DC50 | Y
1 | C[C@]1(O)CC[C@H]([C@@H](NC(=O)c2ccc3c(c2)CN(C2CCC(=O)NC2=O)C3=O)C(F)(F)F)CC1 (stereo partly drawn) [Example 156, 2-(2,6-dioxopiperidin-3-yl)-1-oxo-N-((R)-2,2,2-trifluoro-1-((1r,4R)-4-hydroxy-4-methylcyclohexyl)ethyl)isoindoline-5-carboxamide] | 100 to 500 nM | * (a Y value (shown as *) of 0<Y≤20%)
2 | O=C1CCC(N2Cc3c(ccc(C(=O)N[C@H](c4ncccc4Cl)C(F)(F)F)c3F)C2=O)C(=O)N1 (stereo partly drawn) [Example 139, N-((R)-1-(3-chloropyridin-2-yl)-2,2,2-trifluoroethyl)-2-(2,6-dioxopiperidin-3-yl)-4-fluoro-1-oxoisoindoline-5-carboxamide] | < 100 nM | * (a Y value (shown as *) of 0<Y≤20%)
3 | O=C1CCC(N2Cc3cc(C(=O)N[C@H](c4ccc(Cl)cc4Cl)C(F)(F)F)ccc3C2=O)C(=O)N1 (stereo partly drawn) [Example 163, N-((R)-1-(2,4-dichlorophenyl)-2,2,2-trifluoroethyl)-2-(2,6-dioxopiperidin-3-yl)-1-oxoisoindoline-5-carboxamide] | < 100 nM | * (a Y value (shown as *) of 0<Y≤20%)
4 | O=C1CCC(N2Cc3c(ccc(C(=O)N[C@H](c4cccc(F)c4)C(F)(F)F)c3F)C2=O)C(=O)N1 (stereo partly drawn) [Example 108, 2-(2,6-dioxopiperidin-3-yl)-4-fluoro-1-oxo-N-((R)-2,2,2-trifluoro-1-(3-fluorophenyl)ethyl)isoindoline-5-carboxamide] | 100 to 500 nM | ** (a Y value (shown as**) of 20%<Y≤35%)
5 | COc1cccnc1[C@@H](NC(=O)c1ccc2c(c1)CN(C1CCC(=O)NC1=O)C2=O)C(F)(F)F (stereo partly drawn) [Example 200, 2-(2,6-dioxopiperidin-3-yl)-1-oxo-N-((R)-2,2,2-trifluoro-1-(3-methoxypyridin-2-yl)ethyl)isoindoline-5-carboxamide] | < 100 nM | * (a Y value (shown as *) of 0<Y≤20%)
6 | O=C1CCC(N2Cc3c(ccc(C(=O)N[C@H](c4ccc(F)cc4Cl)C(F)(F)F)c3F)C2=O)C(=O)N1 (stereo partly drawn) [Example 145, N-((R)-1-(2-chloro-4-fluorophenyl)-2,2,2-trifluoroethyl)-2-(2,6-dioxopiperidin-3-yl)-4-fluoro-1-oxoisoindoline-5-carboxamide] | < 100 nM | * (a Y value (shown as *) of 0<Y≤20%)
7 | O=C1CCC(N2Cc3cc(C(=O)N[C@@H](CC(F)(F)F)c4ccc(F)cc4)ccc3C2=O)C(=O)N1 (stereo partly drawn) [Example 123, 2-(2,6-dioxopiperidin-3-yl)-1-oxo-N-((S)-3,3,3-trifluoro-1-(4-fluorophenyl)propyl)isoindoline-5-carboxamide] | 100 to 500 nM | ** (a Y value (shown as**) of 20%<Y≤35%)
8 | C[C@H](NC(=O)c1ccc2c(c1)CN(C1CCC(=O)NC1=O)C2=O)c1ccccc1 (stereo partly drawn) [Example 1, 2-(2,6-Dioxopiperidin-3-yl)-1-oxo-N—((S)-1-phenylethyl)isoindoline-5-carboxamide] | < 100 nM | * (a Y value (shown as *) of 0<Y≤20%)
9 | CC(C)[C@@H](NC(=O)c1ccc2c(c1)CN(C1CCC(=O)NC1=O)C2=O)c1ccccc1 (stereo partly drawn) [Example 124, 2-(2,6-dioxopiperidin-3-yl)-N-((R)-2-methyl-1-phenylpropyl)-1-oxoisoindoline-5-carboxamide] | < 100 nM | * (a Y value (shown as *) of 0<Y≤20%)
10 | O=C1CCC(N2Cc3c(ccc(C(=O)N[C@H](c4ccc(Cl)cc4Cl)C(F)(F)F)c3F)C2=O)C(=O)N1 (stereo partly drawn) [Example 164, N-((R)-1-(2,4-dichlorophenyl)-2,2,2-trifluoroethyl)-2-(2,6-dioxopiperidin-3-yl)-4-fluoro-1-oxoisoindoline-5-carboxamide] | 100 to 500 nM | ** (a Y value (shown as**) of 20%<Y≤35%)
11 | Cn1nccc1[C@@H](NC(=O)c1ccc2c(c1)CN(C1CCC(=O)NC1=O)C2=O)C(F)(F)F (stereo partly drawn) [Example 69, 2-(2,6-dioxopiperidin-3-yl)-1-oxo-N-((R)-2,2,2-trifluoro-1-(1-methyl-1H-pyrazol-5-yl)ethyl)isoindoline-5-carboxamide] | 500 to 1000 nM | ** (a Y value (shown as**) of 20%<Y≤35%)
12 | Cc1ccccc1[C@@H](NC(=O)c1ccc2c(c1F)CN(C1CCC(=O)NC1=O)C2=O)C(F)(F)F (stereo partly drawn) [Example 128, 2-(2,6-dioxopiperidin-3-yl)-4-fluoro-1-oxo-N-((R)-2,2,2-trifluoro-1-o-tolylethyl)isoindoline-5-carboxamide] | < 100 nM | * (a Y value (shown as *) of 0<Y≤20%)
13 | O=C1CCC(N2Cc3c(ccc(C(=O)N[C@@H](CC(F)(F)F)c4cccc(F)c4)c3F)C2=O)C(=O)N1 (stereo partly drawn) [Example 146, 2-(2,6-dioxopiperidin-3-yl)-4-fluoro-1-oxo-N-((S)-3,3,3-trifluoro-1-(3-fluorophenyl)propyl)isoindoline-5-carboxamide] | 100 to 500 nM | ** (a Y value (shown as**) of 20%<Y≤35%)
14 | O=C1CCC(N2Cc3cc(C(=O)N[C@H](C4CCC5(CCC5)CC4)C(F)(F)F)ccc3C2=O)C(=O)N1 (stereo partly drawn) [Example 53, 2-(2,6-dioxopiperidin-3-yl)-1-oxo-N-((1R)-2,2,2-trifluoro-1-(spiro[3.5]nonan-7-yl)ethyl)isoindoline-5-carboxamide] | < 100 nM | * (a Y value (shown as *) of 0<Y≤20%)
15 | O=C1CCC(N2Cc3cc(C(=O)N[C@H](c4ccccc4OC(F)(F)F)C(F)(F)F)ccc3C2=O)C(=O)N1 (stereo partly drawn) [Example 44, 2-(2,6-dioxopiperidin-3-yl)-1-oxo-N-((R)-2,2,2-trifluoro-1-(2-(trifluoromethoxy)phenyl)ethyl)isoindoline-5-carboxamide] | < 100 nM | * (a Y value (shown as *) of 0<Y≤20%)
16 | CC(C)[C@H](NC(=O)c1ccc2c(c1)CN(C1CCC(=O)NC1=O)C2=O)c1ccc(Cl)cc1 (stereo partly drawn) [Example 177, N-((S)-1-(4-chlorophenyl)-2-methylpropyl)-2-(2,6-dioxopiperidin-3-yl)-1-oxoisoindoline-5-carboxamide] | < 100 nM | * (a Y value (shown as *) of 0<Y≤20%)
17 | O=C1CCC(N2Cc3cc(C(=O)NC(C4CCC5(CC4)CC(O)C5)C(F)(F)F)ccc3C2=O)C(=O)N1 (stereo not drawn) [Example 181, 2-(2,6-dioxopiperidin-3-yl)-1-oxo-N-(2,2,2-trifluoro-1-(2-hydroxyspiro[3.5]nonan-7-yl)ethyl)isoindoline-5-carboxamide] | 100 to 500 nM | * (a Y value (shown as *) of 0<Y≤20%)
18 | O=C1CCC(N2Cc3cc(C(=O)N[C@H](c4ccccc4C(F)(F)F)C(F)(F)F)ccc3C2=O)C(=O)N1 (stereo partly drawn) [Example 47, 2-(2,6-dioxopiperidin-3-yl)-1-oxo-N-((R)-2,2,2-trifluoro-1-(2-(trifluoromethyl)phenyl)ethyl)isoindoline-5-carboxamide] | < 100 nM | * (a Y value (shown as *) of 0<Y≤20%)
19 | O=C1CCC(N2Cc3cc(C(=O)N[C@@H](CC(F)(F)F)c4ccc(Cl)cc4)ccc3C2=O)C(=O)N1 (stereo partly drawn) [Example 149, N-((S)-1-(4-chlorophenyl)-3,3,3-trifluoropropyl)-2-(2,6-dioxopiperidin-3-yl)-1-oxoisoindoline-5-carboxamide] | 500 to 1000 nM | ** (a Y value (shown as**) of 20%<Y≤35%)
20 | O=C1CCC(N2Cc3cc(C(=O)N[C@H](CC(F)(F)F)c4ccccc4F)ccc3C2=O)C(=O)N1 (stereo partly drawn) [Example 195, 2-(2,6-dioxopiperidin-3-yl)-1-oxo-N-((R)-3,3,3-trifluoro-1-(2-fluorophenyl)propyl)isoindoline-5-carboxamide] | < 100 nM | * (a Y value (shown as *) of 0<Y≤20%)
21 | O=C1CCC(N2Cc3cc(C(=O)N[C@H](c4ccc(F)cn4)C(F)(F)F)ccc3C2=O)C(=O)N1 (stereo partly drawn) [Example 76, 2-(2,6-dioxopiperidin-3-yl)-1-oxo-N-((R)-2,2,2-trifluoro-1-(5-fluoropyridin-2-yl)ethyl)isoindoline-5-carboxamide] | < 100 nM | ** (a Y value (shown as**) of 20%<Y≤35%)
22 | O=C1CC[C@H](N2Cc3cc(C(=O)N[C@H](c4ncccc4Cl)C(F)(F)F)ccc3C2=O)C(=O)N1 [Example 173, N-((R)-1-(3-chloropyridin-2-yl)-2,2,2-trifluoroethyl)-2-((S)-2,6-dioxopiperidin-3-yl)-1-oxoisoindoline-5-carboxamide] | < 100 nM | * (a Y value (shown as *) of 0<Y≤20%)
23 | O=C1CCC(N2Cc3cc(C(=O)N[C@H](c4ccccc4Cl)C(F)(F)F)ccc3C2=O)C(=O)N1 (stereo partly drawn) [Example 50, N-((R)-1-(2-chlorophenyl)-2,2,2-trifluoroethyl)-2-(2,6-dioxopiperidin-3-yl)-1-oxoisoindoline-5-carboxamide] | < 100 nM | * (a Y value (shown as *) of 0<Y≤20%)
24 | O=C1CCC(N2Cc3cc(C(=O)N[C@H](C4CCCCC4)C(F)(F)F)ccc3C2=O)C(=O)N1 (stereo partly drawn) [Example 23] | < 100 nM | * (a Y value (shown as *) of 0<Y≤20%)
25 | O=C1CC[C@H](N2Cc3cc(C(=O)N[C@H](c4ccc(F)cc4)C(F)(F)F)ccc3C2=O)C(=O)N1 [Example 103, 2-((S)-2,6-dioxopiperidin-3-yl)-1-oxo-N-((R)-2,2,2-trifluoro-1-(4-fluorophenyl)ethyl)isoindoline-5-carboxamide] | < 100 nM | * (a Y value (shown as *) of 0<Y≤20%)
26 | O=C1CC[C@H](N2Cc3cc(C(=O)N[C@H](c4ncc(Cl)cc4Cl)C(F)(F)F)ccc3C2=O)C(=O)N1 [Example 207, N-((R)-1-(3,5-dichloropyridin-2-yl)-2,2,2-trifluoroethyl)-2-((S)-2,6-dioxopiperidin-3-yl)-1-oxoisoindoline-5-carboxamide] | < 100 nM | * (a Y value (shown as *) of 0<Y≤20%)
27 | O=C1CCC(N2Cc3cc(C(=O)N[C@H](c4ccc(CN5CC6(COC6)C5)cc4)C(F)(F)F)ccc3C2=O)C(=O)N1 (stereo partly drawn) [Example 179, N-((1R)-1-(4-(2-oxa-6-azaspiro[3.3]heptan-6-ylmethyl)phenyl)-2,2,2-trifluoroethyl)-2-(2,6-dioxopiperidin-3-yl)-1-oxoisoindoline-5-carboxamide] | 100 to 500 nM | * (a Y value (shown as *) of 0<Y≤20%)

— patent US11306101B2 (Celgene Corporation, priority 2019, dated 2022)
